Structures are written as SMILES. Like-named read-outs stand apart in the source and are kept apart here.

By IC50 is commonly meant the concentration that inhibits the measured activity by half.

Common to all, as to type: cell-based
One assay deals with T1, rNaV1.4 (Rattus norvegicus, UniProt P15390).
T1 construct: expressed in transfected cells; host or cells: HEK 293 cells, transient transfection
The experiment in a line: Whole-cell patch-clamp inhibition of rNaV1.4 in HEK 293 cells. Particulars: HEK 293 cells with β1 subunit, 50-ms depolarization to −10 mV from −100 mV every 5 s, Hill fit, mean ± S.E., room temperature. An excerpt: (§1) Using whole-cell voltage clamp recording techniques, currents were elicited by a 50-ms depolarizing potential of −10 mV from a holding potential of −100 mV every 5 s. […] The time constants for these inhibitions were 34.01 ± 6.81 and 34.24 ± 8.13 s, respectively (Figure 1a,d). […] Dose-response curves for NaV1 subtypes tested are summarized in Figure 1e and consist of at least three data points for each concentration.
After purification, we characterized the interaction of each mutant toxin with NaV1.4. Under whole-cell patch clamp configuration, rNaV1.4 current was elicited by a 50-ms depolarizing potential of −10 mV from a holding potential of −100 mV every 5 s.
All the voltage gated sodium channels subtypes (hNaV1.3, rNaV1.4, hNaV1.5 and hNaV1.7), along with β1 subunit to increase the current density and green fluorescent protein to serve as the report protein, were individually transiently transfected into HEK 293 cells using the lipofectamine 2000 (Invitrogen, Carlsbad, CA, USA) according to its manufacturer’s instructions. HEK293 cells were cultured under standard cell culture condition (5% CO2; 37 °C) in DMEM supplemented with 10% FBS. At 36–72 h after transfection, cells with green fluorescence were selected for whole-cell patch-clamp recording at room temperature. The pipette solution contained (in mM): 140 CsF, 10 NaCl, 10 HEPES and 1 EGFA, pH7.3. The bathing solution contained (in mM): 140 NaCl, 10 HEPES, 3 KCl, 1 MgCl2 and 1 CaCl2, pH7.3.
Sodium currents were recorded on experimental cells using whole-cell patch-clamp techniques at room temperature (20–25 °C). Patch pipettes with DC resistance of 2~3 MΩ were fabricated from borosilicate glass tubing (VWR micropipettes; VWR Co., West Chester, PA, USA) using a two-stage vertical microelectrode puller (PC-10; Narishige, Tokyo, Japan) and fire-polished by a heater (Narishige, Tokyo, Japan). Whole-cell patch-clamp recordings were performed by an Axon 700B patch-clamp amplifier (Axon Instruments, Irvine, CA, USA). The P/4 protocol was used to subtract linear capacitive and leakage currents. Experimental data were acquired and analyzed using the programs Clampfit 10.0 (Axon Instruments, Irvine, CA, USA) and Sigmaplot 90 (Sigma, St. Louis, MO, USA).
Before use, the solution was diluted to the concentration of interest with fresh bathing solution. Toxin was introduced into the recording chamber (volume of 300 μL) and mixed by repeatedly pipetting 30 μL to achieve the demanded final concentration. The mixing process typically took ~5 s.
Data were analyzed using the Clampfit (Molecular Devices, Irvine, CA, USA) and Sigmaplot 10.0 (Sigma, St. Louis, MO, USA) software programs. All data points are shown as mean ± S.E. n is the number of the separated experimental cells. […] The Hill coefficient was set to 1 except where indicated. The box plots were generated at http://boxplot.tyerslab.com. In the box plots, center lines show the medians; box limits indicate the 25th and 75th percentiles as determined by R software; whiskers extend 1.5 times the interquartile range from the 25th and 75th percentiles, outliers are represented by dots. Time courses were fitted by using single exponential decay function.
On the technique in general: In patch-clamp work, channel activity is measured electrically.

In the next assay the target is T2, hNaV1.7 (Homo sapiens, UniProt Q15858).
T2 construct: expressed in transfected cells; host or cells: HEK 293 cells, transient transfection
The experiment in a line: Whole-cell patch-clamp inhibition of hNaV1.7 in HEK 293 cells. Particulars: 100 nM toxin, approximate.

The target in the next assay is T3, hNaV1.3 (Homo sapiens, UniProt Q9NY46).
T3 construct: expressed in transfected cells; host or cells: HEK 293 cells, transient transfection
The experiment in a line: Whole-cell patch-clamp inhibition of hNaV1.3 in HEK 293 cells. Particulars: 100 nM toxin, approximate.

A further assay addresses T4, hNaV1.5 (Homo sapiens, UniProt Q14524).
T4 construct: expressed in transfected cells; host or cells: HEK 293 cells, transient transfection
The experiment in a line: Whole-cell patch-clamp inhibition of hNaV1.5 in HEK 293 cells.
Text: as §1
All the voltage gated sodium channels subtypes (hNaV1.3, rNaV1.4, hNaV1.5 and hNaV1.7), along with β1 subunit to increase the current density and green fluorescent protein to serve as the report protein, were individually transiently transfected into HEK 293 cells using the lipofectamine 2000 (Invitrogen, Carlsbad, CA, USA) according to its manufacturer’s instructions. […] At 36–72 h after transfection, cells with green fluorescence were selected for whole-cell patch-clamp recording at room temperature. […]
Sodium currents were recorded on experimental cells using whole-cell patch-clamp techniques at room temperature (20–25 °C). […] Experimental data were acquired and analyzed using the programs Clampfit 10.0 (Axon Instruments, Irvine, CA, USA) and Sigmaplot 90 (Sigma, St. Louis, MO, USA). […]
Data were analyzed using the Clampfit (Molecular Devices, Irvine, CA, USA) and Sigmaplot 10.0 (Sigma, St. Louis, MO, USA) software programs. […]

The mark [1] stands for this setting: read-out: IC50 on rNaV1.4 (alanine mutants).

T1 sequence (P15390 whole entry): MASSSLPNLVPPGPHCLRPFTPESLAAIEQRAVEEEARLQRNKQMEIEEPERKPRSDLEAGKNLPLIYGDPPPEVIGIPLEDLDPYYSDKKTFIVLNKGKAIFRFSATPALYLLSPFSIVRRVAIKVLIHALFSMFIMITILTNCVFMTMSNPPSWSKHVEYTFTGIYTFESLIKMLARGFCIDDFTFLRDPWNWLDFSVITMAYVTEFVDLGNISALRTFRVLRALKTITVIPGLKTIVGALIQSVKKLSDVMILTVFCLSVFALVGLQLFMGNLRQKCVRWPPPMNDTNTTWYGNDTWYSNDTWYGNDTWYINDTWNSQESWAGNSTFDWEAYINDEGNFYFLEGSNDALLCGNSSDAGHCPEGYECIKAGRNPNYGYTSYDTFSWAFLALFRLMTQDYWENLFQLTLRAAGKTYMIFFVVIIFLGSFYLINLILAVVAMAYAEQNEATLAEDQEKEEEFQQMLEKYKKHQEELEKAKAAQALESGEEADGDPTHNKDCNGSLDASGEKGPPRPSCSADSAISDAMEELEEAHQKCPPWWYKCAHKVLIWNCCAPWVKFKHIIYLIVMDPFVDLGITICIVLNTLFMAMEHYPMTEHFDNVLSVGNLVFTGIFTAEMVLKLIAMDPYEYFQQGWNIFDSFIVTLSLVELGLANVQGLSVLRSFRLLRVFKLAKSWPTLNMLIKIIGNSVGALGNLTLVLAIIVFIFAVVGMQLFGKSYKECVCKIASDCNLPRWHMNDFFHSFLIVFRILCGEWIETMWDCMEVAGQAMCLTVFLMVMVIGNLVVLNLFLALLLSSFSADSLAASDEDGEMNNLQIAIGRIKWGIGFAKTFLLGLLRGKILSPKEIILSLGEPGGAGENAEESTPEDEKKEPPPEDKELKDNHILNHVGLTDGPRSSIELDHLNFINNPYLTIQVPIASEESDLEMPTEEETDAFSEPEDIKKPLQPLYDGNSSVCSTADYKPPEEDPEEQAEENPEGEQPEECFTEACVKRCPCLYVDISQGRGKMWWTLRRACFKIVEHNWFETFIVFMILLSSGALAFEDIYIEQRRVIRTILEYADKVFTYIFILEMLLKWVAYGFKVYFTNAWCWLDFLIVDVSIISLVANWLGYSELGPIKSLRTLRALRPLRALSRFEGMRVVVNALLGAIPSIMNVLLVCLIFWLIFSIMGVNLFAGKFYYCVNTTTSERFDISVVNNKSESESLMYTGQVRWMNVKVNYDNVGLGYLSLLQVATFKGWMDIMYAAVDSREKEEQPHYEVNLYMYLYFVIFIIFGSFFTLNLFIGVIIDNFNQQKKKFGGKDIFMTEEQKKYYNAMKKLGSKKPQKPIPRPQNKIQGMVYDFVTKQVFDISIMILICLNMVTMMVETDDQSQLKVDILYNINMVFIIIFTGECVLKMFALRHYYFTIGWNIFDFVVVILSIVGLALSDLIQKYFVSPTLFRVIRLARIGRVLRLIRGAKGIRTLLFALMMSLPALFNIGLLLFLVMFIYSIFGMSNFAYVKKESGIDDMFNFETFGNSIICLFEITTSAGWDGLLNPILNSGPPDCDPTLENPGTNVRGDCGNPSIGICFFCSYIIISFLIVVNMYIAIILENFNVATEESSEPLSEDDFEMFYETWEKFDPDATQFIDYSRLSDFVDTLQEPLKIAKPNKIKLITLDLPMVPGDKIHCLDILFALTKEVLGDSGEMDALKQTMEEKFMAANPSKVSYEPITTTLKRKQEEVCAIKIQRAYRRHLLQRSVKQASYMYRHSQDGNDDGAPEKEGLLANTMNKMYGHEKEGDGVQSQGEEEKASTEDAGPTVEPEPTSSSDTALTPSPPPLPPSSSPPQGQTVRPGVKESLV
T1 sequence (Q07699 19-218, further chain): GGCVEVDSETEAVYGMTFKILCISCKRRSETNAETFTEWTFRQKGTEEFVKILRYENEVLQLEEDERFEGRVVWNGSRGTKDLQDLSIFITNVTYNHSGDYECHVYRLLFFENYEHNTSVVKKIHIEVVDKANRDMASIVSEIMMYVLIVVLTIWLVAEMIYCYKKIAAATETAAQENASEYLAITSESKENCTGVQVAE
T4 sequence (Q14524 whole entry): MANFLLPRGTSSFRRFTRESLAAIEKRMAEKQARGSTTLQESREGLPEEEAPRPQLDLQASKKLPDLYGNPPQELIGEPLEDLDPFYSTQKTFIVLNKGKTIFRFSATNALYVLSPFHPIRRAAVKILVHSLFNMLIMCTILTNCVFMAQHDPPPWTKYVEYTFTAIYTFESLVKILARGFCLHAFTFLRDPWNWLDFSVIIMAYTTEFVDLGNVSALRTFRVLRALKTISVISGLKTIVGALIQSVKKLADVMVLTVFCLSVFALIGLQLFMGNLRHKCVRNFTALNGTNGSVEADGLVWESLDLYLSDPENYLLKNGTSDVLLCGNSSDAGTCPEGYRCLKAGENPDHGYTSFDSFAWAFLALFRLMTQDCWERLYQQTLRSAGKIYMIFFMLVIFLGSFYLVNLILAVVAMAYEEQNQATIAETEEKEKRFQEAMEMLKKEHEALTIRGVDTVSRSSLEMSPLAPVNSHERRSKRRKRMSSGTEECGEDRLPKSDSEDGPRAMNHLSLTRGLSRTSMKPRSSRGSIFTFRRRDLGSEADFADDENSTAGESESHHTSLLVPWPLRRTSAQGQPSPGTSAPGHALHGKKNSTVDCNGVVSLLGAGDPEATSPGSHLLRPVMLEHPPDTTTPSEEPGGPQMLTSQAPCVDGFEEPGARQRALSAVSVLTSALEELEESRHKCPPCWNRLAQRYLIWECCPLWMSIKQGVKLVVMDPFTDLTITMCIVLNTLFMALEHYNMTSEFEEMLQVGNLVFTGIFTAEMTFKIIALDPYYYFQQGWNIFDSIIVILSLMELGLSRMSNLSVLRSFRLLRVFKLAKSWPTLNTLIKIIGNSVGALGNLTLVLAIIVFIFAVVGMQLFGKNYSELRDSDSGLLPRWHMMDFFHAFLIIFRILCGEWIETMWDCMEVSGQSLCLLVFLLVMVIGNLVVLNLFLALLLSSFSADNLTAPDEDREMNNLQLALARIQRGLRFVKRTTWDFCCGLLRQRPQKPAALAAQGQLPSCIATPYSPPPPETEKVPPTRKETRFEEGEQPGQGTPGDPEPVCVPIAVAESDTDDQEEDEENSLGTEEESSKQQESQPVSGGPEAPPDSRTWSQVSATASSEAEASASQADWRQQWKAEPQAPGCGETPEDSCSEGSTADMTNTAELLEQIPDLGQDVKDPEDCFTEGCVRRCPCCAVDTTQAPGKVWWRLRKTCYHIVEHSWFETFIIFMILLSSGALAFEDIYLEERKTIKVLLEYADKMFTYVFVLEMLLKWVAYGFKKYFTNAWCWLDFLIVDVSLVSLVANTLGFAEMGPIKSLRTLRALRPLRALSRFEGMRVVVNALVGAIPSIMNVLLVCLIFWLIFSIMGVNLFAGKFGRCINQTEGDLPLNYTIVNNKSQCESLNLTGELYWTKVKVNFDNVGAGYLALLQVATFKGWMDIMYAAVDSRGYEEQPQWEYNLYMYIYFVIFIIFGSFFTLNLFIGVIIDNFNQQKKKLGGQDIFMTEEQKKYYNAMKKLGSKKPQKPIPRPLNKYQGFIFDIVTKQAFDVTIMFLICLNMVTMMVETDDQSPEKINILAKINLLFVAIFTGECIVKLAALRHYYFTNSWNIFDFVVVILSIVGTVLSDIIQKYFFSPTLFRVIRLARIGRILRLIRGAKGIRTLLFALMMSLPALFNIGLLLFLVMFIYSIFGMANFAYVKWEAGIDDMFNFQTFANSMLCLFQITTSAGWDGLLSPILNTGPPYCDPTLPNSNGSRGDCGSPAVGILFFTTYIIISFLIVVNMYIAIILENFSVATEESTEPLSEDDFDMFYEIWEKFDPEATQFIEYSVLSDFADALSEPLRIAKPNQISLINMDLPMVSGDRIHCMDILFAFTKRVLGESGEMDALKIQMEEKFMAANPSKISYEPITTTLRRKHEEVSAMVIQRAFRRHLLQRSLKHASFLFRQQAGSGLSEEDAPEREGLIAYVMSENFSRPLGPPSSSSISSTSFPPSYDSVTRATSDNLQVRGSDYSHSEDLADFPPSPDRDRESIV

For `CC[C@H](C)[C@H](NC(=O)[C@@H](NC(=O)[C@H](CCCCN)NC(=O)[C@H](CCCNC(=N)N)NC(=O)[C@@H]1CSSC[C@@H]2NC(=O)[C@H](C)NC(=O)[C@H](CCCNC(=N)N)NC(=O)[C@H](CCCCN)NC(=O)[C@H](CO)NC(=O)[C@H](CC(=O)O)NC(=O)[C@@H]3CSSC[C@H](NC(=O)[C@H](CCCNC(=N)N)NC(=O)[C@H](CC(C)C)NC(=O)CNC(=O)[C@H](CCC(=O)O)NC(=O)[C@H](CSSC[C@H](NC(=O)[C@@H](N)Cc4ccc(O)cc4)C(=O)N[C@@H](CCC(N)=O)C(=O)N[C@@H](CCCCN)C(=O)N[C@@H](Cc4c[nH]c5ccccc45)C(=O)N[C@@H](CCSC)C(=O)N[C@@H](Cc4c[nH]c5ccccc45)C(=O)N[C@@H]([C@@H](C)O)C(=O)N3)NC2=O)C(=O)N[C@@H](CCCCN)C(=O)N[C@@H](CC(C)C)C(=O)N[C@@H](Cc2c[nH]c3ccccc23)C(=O)N1)[C@@H](C)CC)C(N)=O` [JZTX-V], the IC50 at rNaV1.4 (three to six cells, read-out: IC50 on rNaV1.4) was determined as 5.12 ± 0.87 nM; against hNaV1.5 (HEK 293 cells with β1 subunit, 50-ms depolarization to −10 mV from −100 mV every 5 s, Hill fit, mean ± S.E., three to six cells, room temperature) it was 2700 ± 779 nM. In addition, the “inhibition of hNaV1.7 inward current (Figure 1b)” value against hNaV1.7 was “approximately 45%”. For the same molecule, the “inhibition of hNaV1.3 inward current (Figure 1c)” value against hNaV1.3 is recorded as ~35%. For the same molecule, the “decrease of hNaV1.5 activation (peak current)” value on hNaV1.5 (500 nM toxin, n = 8, −10 mV from −100 mV) is 43% ± 6.5%.

In the case of `CC[C@H](C)[C@H](NC(=O)[C@@H](NC(=O)[C@H](CCCCN)NC(=O)[C@H](CCCNC(=N)N)NC(=O)[C@@H]1CSSC[C@@H]2NC(=O)[C@H](C)NC(=O)[C@H](CCCNC(=N)N)NC(=O)[C@H](CCCCN)NC(=O)[C@H](CO)NC(=O)[C@H](CC(=O)O)NC(=O)[C@@H]3CSSC[C@H](NC(=O)[C@H](CCCNC(=N)N)NC(=O)[C@H](CC(C)C)NC(=O)CNC(=O)[C@H](CCC(=O)O)NC(=O)[C@H](CSSC[C@H](NC(=O)[C@@H](N)Cc4ccc(O)cc4)C(=O)N[C@@H](CCC(N)=O)C(=O)N[C@@H](CCCCN)C(=O)N[C@@H](Cc4c[nH]c5ccccc45)C(=O)N[C@@H](CCSC)C(=O)N[C@@H](Cc4c[nH]c5ccccc45)C(=O)N[C@@H]([C@@H](C)O)C(=O)N3)NC2=O)C(=O)N[C@@H](C)C(=O)N[C@@H](CC(C)C)C(=O)N[C@@H](Cc2c[nH]c3ccccc23)C(=O)N1)[C@@H](C)CC)C(N)=O` [K22A], the IC50 at rNaV1.4 (setting [1]) was found to be 659 ± 11 nM.

For the molecule `CC[C@H](C)[C@H](NC(=O)[C@@H](NC(=O)[C@H](CCCCN)NC(=O)[C@H](CCCNC(=N)N)NC(=O)[C@@H]1CSSC[C@@H]2NC(=O)[C@H](C)NC(=O)[C@H](CCCNC(=N)N)NC(=O)[C@H](CCCCN)NC(=O)[C@H](CO)NC(=O)[C@H](CC(=O)O)NC(=O)[C@@H]3CSSC[C@H](NC(=O)[C@H](CCCNC(=N)N)NC(=O)[C@H](CC(C)C)NC(=O)CNC(=O)[C@H](CCC(=O)O)NC(=O)[C@H](CSSC[C@H](NC(=O)[C@@H](N)Cc4ccc(O)cc4)C(=O)N[C@@H](CCC(N)=O)C(=O)N[C@@H](CCCCN)C(=O)N[C@@H](Cc4c[nH]c5ccccc45)C(=O)N[C@@H](C)C(=O)N[C@@H](Cc4c[nH]c5ccccc45)C(=O)N[C@@H]([C@@H](C)O)C(=O)N3)NC2=O)C(=O)N[C@@H](CCCCN)C(=O)N[C@@H](CC(C)C)C(=O)N[C@@H](Cc2c[nH]c3ccccc23)C(=O)N1)[C@@H](C)CC)C(N)=O` [M6A], the IC50 on rNaV1.4 (setting [1]) came to 252 ± 450 nM.

For the molecule `CC[C@H](C)[C@H](NC(=O)[C@@H](NC(=O)[C@H](CCCCN)NC(=O)[C@H](CCCNC(=N)N)NC(=O)[C@@H]1CSSC[C@@H]2NC(=O)[C@H](C)NC(=O)[C@H](CCCNC(=N)N)NC(=O)[C@H](CCCCN)NC(=O)[C@H](CO)NC(=O)[C@H](CC(=O)O)NC(=O)[C@@H]3CSSC[C@H](NC(=O)[C@H](C)NC(=O)[C@H](CC(C)C)NC(=O)CNC(=O)[C@H](CCC(=O)O)NC(=O)[C@H](CSSC[C@H](NC(=O)[C@@H](N)Cc4ccc(O)cc4)C(=O)N[C@@H](CCC(N)=O)C(=O)N[C@@H](CCCCN)C(=O)N[C@@H](Cc4c[nH]c5ccccc45)C(=O)N[C@@H](CCSC)C(=O)N[C@@H](Cc4c[nH]c5ccccc45)C(=O)N[C@@H]([C@@H](C)O)C(=O)N3)NC2=O)C(=O)N[C@@H](CCCCN)C(=O)N[C@@H](CC(C)C)C(=O)N[C@@H](Cc2c[nH]c3ccccc23)C(=O)N1)[C@@H](C)CC)C(N)=O` [R20A], the IC50 at rNaV1.4 (setting [1]) stood at 2100 ± 280 nM.

Take `CC[C@H](C)[C@H](NC(=O)[C@@H](NC(=O)[C@H](CCCCN)NC(=O)[C@H](CCCNC(=N)N)NC(=O)[C@@H]1CSSC[C@@H]2NC(=O)[C@H](C)NC(=O)[C@H](CCCNC(=N)N)NC(=O)[C@H](CCCCN)NC(=O)[C@H](CO)NC(=O)[C@H](CC(=O)O)NC(=O)[C@@H]3CSSC[C@H](NC(=O)[C@H](CCCNC(=N)N)NC(=O)[C@H](CC(C)C)NC(=O)CNC(=O)[C@H](CCC(=O)O)NC(=O)[C@H](CSSC[C@H](NC(=O)[C@@H](N)Cc4ccc(O)cc4)C(=O)N[C@@H](CCC(N)=O)C(=O)N[C@@H](CCCCN)C(=O)N[C@@H](C)C(=O)N[C@@H](CCSC)C(=O)N[C@@H](Cc4c[nH]c5ccccc45)C(=O)N[C@@H]([C@@H](C)O)C(=O)N3)NC2=O)C(=O)N[C@@H](CCCCN)C(=O)N[C@@H](CC(C)C)C(=O)N[C@@H](Cc2c[nH]c3ccccc23)C(=O)N1)[C@@H](C)CC)C(N)=O` [W5A]: the IC50 at rNaV1.4 (setting [1]) worked out at 313 ± 260 nM.

As to `CC[C@H](C)[C@H](NC(=O)[C@@H](NC(=O)[C@H](CCCCN)NC(=O)[C@H](CCCNC(=N)N)NC(=O)[C@@H]1CSSC[C@@H]2NC(=O)[C@H](C)NC(=O)[C@H](CCCNC(=N)N)NC(=O)[C@H](CCCCN)NC(=O)[C@H](CO)NC(=O)[C@H](CC(=O)O)NC(=O)[C@@H]3CSSC[C@H](NC(=O)[C@H](CCCNC(=N)N)NC(=O)[C@H](CC(C)C)NC(=O)CNC(=O)[C@H](CCC(=O)O)NC(=O)[C@H](CSSC[C@H](NC(=O)[C@@H](N)Cc4ccc(O)cc4)C(=O)N[C@@H](CCC(N)=O)C(=O)N[C@@H](CCCCN)C(=O)N[C@@H](Cc4c[nH]c5ccccc45)C(=O)N[C@@H](CCSC)C(=O)N[C@@H](C)C(=O)N[C@@H]([C@@H](C)O)C(=O)N3)NC2=O)C(=O)N[C@@H](CCCCN)C(=O)N[C@@H](CC(C)C)C(=O)N[C@@H](Cc2c[nH]c3ccccc23)C(=O)N1)[C@@H](C)CC)C(N)=O` [W7A], at rNaV1.4 (setting [1]), the IC50 is 1920 ± 310 nM.

These data come from PMC4113750 (Toxins, 2014).
